Measurements taken from patent US20070020713A1, “Antibodies to the fuel oxygenate mtbe and use thereof in immunoassays” (priority 2003, published 2007).
Where a name gives a salt, the structure may show the parent alone.

Tested on: anti-MTBE antibody prepared in Example 1 (anti-MTBE/7-methoxy-3,7-dimethyloctanal antibody)
Test: Anti-MTBE monoclonal antibody cross-reactivity, indirect competitive ELISA
Format: binding
Conditions: for IC50 (concentration of analyte required to inhibit the maximum assay signal B0 by 50%): B/B0=50%, read from FIG. 4

SMILES | IC50 (concentration of analyte required to inhibit the maximum assay signal B0 by 50%) | cross-reactivity of the antibody (FIG. 4)
COC(C)(C)C [MTBE, methyl tert-butyl ether] | ~10 µg/mL | 
CCC(C)(C)OC [TAME, methyl tert-amyl ether] | ~10 µg/mL | 
CC(C)(C)OC=O [TBF, tert-butyl formate] | ~60 µg/mL | 
CC(C)(C)O [TBA, tert-butyl alcohol] | ~180 µg/mL | 
CO [methanol] |  | no significant cross-reactivity
